We go through three compounds from US9221823B2, “Crystal form of pyrrolidylthiocarbapenem derivative” (Shionogi & Co., Ltd., priority 2000, dated 2015).

What all share (format): physicochemical
Data set [1] in a line: Potency test by liquid chromatography after storage. The note with it: for Change of potency over storage time (in words): storage at 40° C. and 75% RH up to 1 month. On the procedure:
Storage conditions were 40° C. and 75% RH. The periods of time for storage were 1 week, 2 weeks and 1 month. During these storage periods, samples were stored in opened petri dishes.
After storage in this manner, the moisture and potency of each sample were measured.
A potency test was conducted by the following method. About 0.025 g of each of the type IV crystal obtained in Example 4 and type II crystal and a standard product of S-4661 was precisely measured. Each sample was dissolved in water to precisely 100 mL. 10 mL of each solution was precisely measured, to which 5 ml of internal standard solution was added. As the internal standard solution, aqueous acetaminophen solution (concentration 1/20000:1 g of acetaminophen in 20000 ml of the solution) was used. Thereafter, water was added to each solution to 50 mL. Solutions prepared from the type IV or II crystals were used as sample solutions. A solution prepared from a standard product of S-4661 was used as a standard solution. 10 μL of each of the sample solutions and the standard solution were subjected to liquid chromatography under the following conditions. For the sample solution, the ratio QT of the peak area of S-4661 to the peak area of the internal standard substance was obtained. For the standard solution, the ratio QS of the peak area of S-4661 to the peak area of the internal standard substance was obtained.
Conditions for Operation • Detector: ultraviolet absorptiometer (measurement wavelength: 240 nm) • Column: a stainless steel tube having an inner diameter of about 4.6 mm and a length of about 15 cm was filled with 5 μm of octadecylsilylated silica gel for liquid chromatography (L-column ODS). • Column temperature: a constant temperature of around 25° C. • Mobile phase: 2 mmol/L phosphate buffer pH 5.8/acetonitrile mixture (191:9) • Flow rate: Flow rate was adjusted so that the retention time of S-4661 was about 8 to 9 minutes (about 1 mL/min). • Selection of column: 10 μL of standard solution was used and the operation was conducted under the above-described conditions. A column, which elutes S-4661 and the internal standard substance in this order and has a resolution between S-4661 and the internal standard substance of at least 3, was used.
Potencies were calculated by the following expression.

The nature of data set [2]: Assessment of storage stability of crystals. The note with it: for Storage stability (in words): compared to conventional type I or II crystals. As to the method:
The storage stability of the thus-obtained crystal of the present invention was assessed.
Hereinafter, a result of evaluation of comparing the stability of the crystals of the present invention with that of a conventional crystal (type II crystal) is specifically shown.
The stability of type II crystal of S4661 (conventional crystal) was compared with that of the type IV crystal obtained in the above-described Example 4.

Data set [3] is described as follows: Moisture measurement after storage (Karl Fischer water determination). The note with it: for Moisture absorption (in words): storage at 40° C. and 75% RH up to 1 month. On the procedure:
Storage conditions were 40° C. and 75% RH. The periods of time for storage were 1 week, 2 weeks and 1 month. During these storage periods, samples were stored in opened petri dishes. After storage in this manner, the moisture and potency of each sample were measured. The moisture was measured according to REQUIREMENT FOR ANTIBIOTIC PRODUCTS OF JAPAN General Tests MOISTURE DETERMINATION II Water determination. Note that Karl Fischer formamide methanol mixture II was used as the solvent.

The mark [4] stands for this setting: 1 month storage at 40° C. and 75% RH, opened petri dish.
Setting [5] is: 1 week storage at 40° C. and 75% RH, opened petri dish.
Setting [6] is: 2 weeks storage at 40° C. and 75% RH, opened petri dish.

On to `C[C@@H](O)[C@H]1C(=O)N2C(C(=O)O)=C(S[C@@H]3CN[C@H](CNS(N)(=O)=O)C3)[C@H](C)[C@H]12` [Type IV, (+)-(4R,5S,6S)-6-[(1R)-1-hydroxyethyl]-4-methyl-7-oxo-3[[(3S,5S)-5-(sulfamoylaminomethyl)pyrrolidin-3-yl]thio]-1-azabicyclo[3.2.0]hept-2-ene-2-carboxylic acid], for which the Potency in data set [1] (setting [4]) was 981.5 µg/mg; in data set [1] (setting [5]), 990.8 µg/mg; in data set [1] (setting [6]), 992.4 µg/mg; in data set [1] (Initial time, before storage) it was 993.3 µg/mg. Besides, the “Change of potency over storage time (in words)” value in data set [1] (listed as type IV crystal) is listed as “no significant change”. Also, the “Storage stability (in words)” value in data set [2] (listed as type IV crystal) is reported as “more excellent storage stability”. The “Stability relative to type II crystal (other test results, in words)” value in data set [2] (other test results) is “more stable than the type II crystal”. Besides, the Moisture in data set [3] (setting [4]) was 4.99%; in data set [3] (setting [5]), 4.79%; in data set [3] (setting [6]) it was 4.89%; in data set [3] (Initial time, before storage) it was 4.62%. Also, the “Moisture absorption (in words)” value in data set [3] (listed as type IV crystal) is listed as “absorbs substantially no moisture”.
With `C[C@@H](O)[C@H]1C(=O)N2C(C(=O)O)=C(S[C@@H]3CN[C@H](CNS(N)(=O)=O)C3)[C@H](C)[C@H]12` [Type II, (+)-(4R,5S,6S)-6-[(1R)-1-hydroxyethyl]-4-methyl-7-oxo-3[[(3S,5S)-5-(sulfamoylaminomethyl)pyrrolidin-3-yl]thio]-1-azabicyclo[3.2.0]hept-2-ene-2-carboxylic acid], the Potency worked out at 826.4 µg/mg in data set [1] (setting [4]); 956.2 µg/mg in data set [1] (setting [5]); 923.0 µg/mg in data set [1] (setting [6]); 983.2 µg/mg in data set [1] (Initial time, before storage). Further, in data set [1] (listed as type II crystal), the “Change of potency over storage time (in words)” value was “decreased over time”. For the same compound, the Moisture in data set [3] (setting [4]) turned out to be 10.31%; in data set [3] (setting [5]), 9.51%; in data set [3] (setting [6]), 10.36%; in data set [3] (Initial time, before storage) it was 4.56%. Besides, in data set [3] (after about two weeks at 40° C. and 75% RH), the “Moisture level at which moisture became constant” value was “about 10%”. Also, the “Moisture absorption (in words)” value in data set [3] (listed as type II crystal) is “absorbs moisture”.
As for `C[C@@H](O)[C@H]1C(=O)N2C(C(=O)O)=C(S[C@@H]3CN[C@H](CNS(N)(=O)=O)C3)[C@H](C)[C@H]12` [Type III, (+)-(4R,5S,6S)-6-[(1R)-1-hydroxyethyl]-4-methyl-7-oxo-3[[(3S,5S)-5-(sulfamoylaminomethyl)pyrrolidin-3-yl]thio]-1-azabicyclo[3.2.0]hept-2-ene-2-carboxylic acid], the “Storage stability (in words)” value in data set [2] (listed as type III crystal) is listed as “excellent storage stability as compared to conventional type I or II crystals”.
